The record followed here is US8901313B2, “6,5-heterocyclic propargylic alcohol compounds and uses therefor” (Genentech, Inc., priority 2011, dated 2014).

The structures appear in SMILES notation.

Test [1] concerns p52 (NF-kB2) nuclear translocation in HeLa cells. Briefly: NIK p52 Translocation Assay (non-classical NF-kB signaling). As to conditions: Homo sapiens; HeLa cells, 100 ng/mL anti-lymphotoxin beta receptor antibody, 5 hours; read-out: inhibitory value (IC50) for NIK p52 Translocation Assay. It counts as cell-based. An outline of the steps: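 HeLa cells in 10% FBS medium were exposed to compound (0.2% DMSO final) and stimulated with 100 ng/mL anti-lymphotoxin β receptor antibody for 5 h. Fixed cells were immunostained for p52 with DRAQ5 counterstain and imaged by high-content imaging. IC50 from nuclear/cytoplasmic p52 signal ratio vs concentration.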

Test [2] relates to NF-kB signaling through NIK in human embryonic kidney 293 cells. Briefly: 293-NIK NF-kB-Luciferase reporter assay. The note with it: HEK293, 293 cells with tetracycline-inducible NIK, 1 ug/mL doxycycline, 24 hours, read-out: inhibitory value (IC50) for 293-NIK NF-kB-Luciferase activity. It is filed as cell-based. An outline of the steps: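 HEK293 cells stably carrying tetracycline-inducible NIK plus NF-kB (ELAM-1 element) firefly luciferase and constitutive TK-Renilla viability reporter. Compounds (0.2% DMSO) incubated 24 h with 1 ug/mL doxycycline; Dual Glo luminescence read, IC50 from firefly signal.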
(In general: Reporter assays use an easily measured gene product as a stand-in for the process of interest.)

In test [3] the test system is human embryonic kidney 293 cells. Briefly: 293-NIK TK Renilla Luciferase reporter (general measure of cell viability). The note with it: HEK293, 293 cells, constitutive Renilla luciferase, 24 hours, read-out: inhibitory value (IC50) for 293-NIK TK Renilla Luciferase activity. It counts as cell-based. The text has this: (1) The first assay was used to profile whether a test compound can inhibit the NF-kB signally through NIK inhibition without affecting cell viability. In this assay, human embryonic kidney 293 cells was stably transfected with a tetracycline-inducible NIK DNA construct containing a cytomegalovirus promoter plus two reporter DNA constructs. One reporter encoded firefly luciferase under the control of three repeats of an NF-kB response element from the ELAM-1 gene and reflects the level of NIK activity in the cells, whereas the other reporter constitutively expressed Renilla luciferase under the control of the herpes simplex virus thymidine kinase promoter and served as a general measure of cell viability. Cells were incubated with different concentrations of compounds (0.2% DMSO final) in medium containing 1 ug/mL doxycycline and 10% tet-system approved fetal bovine serum (Clontech) for 24 hours, after which the reporters' signals were detected using the Dual Glo luciferase detection system (Promega) according to the vendor's protocol. The compounds listed in Table 1 have the corresponding inhibitory value (IC50 in micromolar) for 293-NIK NF-kB-Luciferase activity (values for compounds are presented in the same order as found in Table 1): na, 0.059, na, na, na, 0.105, 0.027, na, 20, 1.2, na, 1.8, 0.0231, 0.879, 0.0361, 0.582, na, 0.142, na, 0.403, 0.059, 0.0331, na, na, 0.0573, 1.5, na, na, 0.0722, na, na, 0.589, 12.7, 3.7, 14.9, na, 0.707, 1, 0.0311, 0.332, 0.309, 0.0142, 0.051, 2.8, 0.129, na, na, 1.5, na, na, na, 1.3, 0.062, 20, 0.31, 0.104, 0.091, 0.037, 0.085, 0.279, na, 0.305, 0.064, 0.332, 0.133, 0.168, 0.217, 0.553, na and na.
The compounds in listed in Table 1 have the corresponding inhibitory value (IC50 in micromolar) for 293-NIK TK Renilla Luciferase activity: (values for compounds are presented in the same order as found in Table 1): 6.4, 3.6, 20, na, 1.6, 9.3, 18.5, na, na, 2.6, na, na, na, na, na, na, na, na, na, na, na, na, na, na, na, na, na, na, na, na, na, na, na, na, na, na, na, na, na, na, na, na, na, na, na, na, na, >20, na, na, na, 20, >20, 17, 1.3, 15.6, 0.967, 2.7, 11.2, 5.1, na, 20, 20, 20, 20, 20, 17.6, 20, na and na.

Test [4] relates to REL-A (p65) nuclear translocation in HeLa cells. Briefly: NIK RelA Translocation Assay (classical NF-kB signaling). It is filed as cell-based. As to conditions: Homo sapiens; HeLa cells, compounds 4.5 hours, 10 ng/mL TNF-α 30 minutes; read-out: inhibitory value (IC50) for NIK RelA Translocation Assay. An outline of the steps: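 HeLa cells in 10% FBS medium were preincubated 4.5 h with compound (0.2% DMSO final), then stimulated with 10 ng/mL TNF-α for 30 min. After fixation, anti-REL-A (p65) immunostaining and DRAQ5 nuclear stain, high-content imaging gave the nuclear/cytoplasmic intensity ratio; IC50 from signal versus concentration.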

For test [5], the target named is T1, nuclear factor-kappa B (NF-kB)-inducing kinase (NIK) (Homo sapiens, UniProt Q99558).
T1 construct: made in house; host or cells: baculovirus-infected insect cells
T1 sequence (Q99558 whole entry): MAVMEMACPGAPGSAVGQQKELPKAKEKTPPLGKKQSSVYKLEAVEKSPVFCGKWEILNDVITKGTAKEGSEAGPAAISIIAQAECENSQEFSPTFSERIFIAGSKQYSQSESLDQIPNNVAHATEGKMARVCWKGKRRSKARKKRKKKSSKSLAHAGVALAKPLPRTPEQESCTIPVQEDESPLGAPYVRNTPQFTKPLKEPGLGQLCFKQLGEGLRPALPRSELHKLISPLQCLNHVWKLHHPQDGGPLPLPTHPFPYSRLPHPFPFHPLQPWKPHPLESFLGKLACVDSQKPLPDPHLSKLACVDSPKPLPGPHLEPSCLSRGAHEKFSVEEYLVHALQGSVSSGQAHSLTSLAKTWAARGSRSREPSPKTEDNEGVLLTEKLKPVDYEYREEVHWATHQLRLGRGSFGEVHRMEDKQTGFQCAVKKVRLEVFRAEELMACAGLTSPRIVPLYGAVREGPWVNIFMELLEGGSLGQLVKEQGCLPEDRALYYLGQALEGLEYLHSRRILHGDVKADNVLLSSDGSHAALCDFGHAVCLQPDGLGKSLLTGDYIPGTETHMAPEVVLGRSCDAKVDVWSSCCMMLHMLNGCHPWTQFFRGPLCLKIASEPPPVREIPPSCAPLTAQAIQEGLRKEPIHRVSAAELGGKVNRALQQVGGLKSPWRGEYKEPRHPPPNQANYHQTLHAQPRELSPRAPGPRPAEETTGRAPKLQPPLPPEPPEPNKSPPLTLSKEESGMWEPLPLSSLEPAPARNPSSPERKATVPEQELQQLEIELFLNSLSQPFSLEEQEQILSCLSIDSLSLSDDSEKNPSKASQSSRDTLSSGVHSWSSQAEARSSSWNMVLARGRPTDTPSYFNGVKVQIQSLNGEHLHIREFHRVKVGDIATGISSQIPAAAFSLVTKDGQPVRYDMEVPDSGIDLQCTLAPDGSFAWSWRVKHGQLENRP
Briefly: NIK Enzyme Inhibition Assay (Transcreener ADP assay). It is filed as biochemical. The note with it: purified NIK 0.2-1 nM, 10 uM ATP, fluorescence polarization, Morrison's quadratic equation; read-out: inhibitory value (Ki) for NIK. In general terms: In fluorescence polarisation assays a small probe gives low polarisation when free and higher when bound to something large.

As usually defined, the IC50 is the concentration that gives 50% inhibition. The Ki is a measure of affinity in units of concentration, obtained from inhibition or displacement. `Cc1nn(-c2ccnc(N)n2)c2cc(C#C[C@@](C)(O)c3nccs3)c(F)cc12` [Example T1-55, (R)-4-(1-(2-aminopyrimidin-4-yl)-5-fluoro-3-methyl-1H-indazol-6-yl)-2-(thiazol-2-yl) but-3-yn-2-ol]: the IC50 in test [1] was found to be 243 nM; in test [2], 310 nM; in test [3], 1300 nM; in test [4] it was 89 nM. The Ki in test [5] is 0.2 nM.

As for `Cc1cnc(C(C)(O)C#Cc2ccc3c(C)nn(-c4ccnc(N)n4)c3c2)s1` (stereo not shown) [Example T1-56, 4-(1-(2-aminopyrimidin-4-yl)-3-methyl-1H-indazol-6-yl)-2-(5-methylthiazol-2-yl)but-3-yn-2-ol], the half-maximal inhibitory concentration (IC50) in test [1] was found to be 747 nM; in test [2] it was 104 nM; in test [3] it was 15600 nM; in test [4], 479 nM. In test [5], the Ki was 1.6 nM.

For the compound `Cc1nc(C(C)(O)C#Cc2ccc3c(C)nn(-c4ccnc(N)n4)c3c2)no1` (stereo not shown) [Example T1-57, 4-(1-(2-aminopyrimidin-4-yl)-3-methyl-1H-indazol-6-yl)-2-(5-methyl-1,2,4-oxadiazol-3-yl)but-3-yn-2-ol], the IC50 in test [1] is 1000 nM; in test [2] it was 91 nM; in test [3], 967 nM; in test [4], 489 nM. Also, the Ki in test [5] was determined as 2 nM.

Regarding `Cc1cc(C(C)(O)C#Cc2ccc3c(C(=O)N(C)C)nn(-c4ccnc(N)n4)c3c2)no1` (stereo not shown) [Example T1-59, 1-(2-aminopyrimidin-4-yl)-6-(3-hydroxy-3-(5-methyl-isoxazol-3-yl)but-1-ynyl)-N,N-dimethyl-1H-indazole-3-carboxamide], the concentration for half-maximal inhibition (IC50) in test [1] was determined as 1900 nM; in test [2], 85 nM; in test [3], 11200 nM; in test [4] it was 747 nM. In test [5], the Ki was 0.49 nM.

For `Cc1cc(C(C)(O)C#Cc2ccc3nc(C4CC4)n(-c4ncnc(N)n4)c3c2)no1` (stereo not shown) [Example T1-60, 4-(1-(4-amino-1,3,5-triazin-2-yl)-2-cyclopropyl-1H-benzo [d]imidazol-6-yl)-2-(5-methyl-isoxazol-3-yl)but-3-yn-2-ol], the concentration for half-maximal inhibition (IC50) in test [1] was 552 nM; in test [2] it was 279 nM; in test [3], 5100 nM; in test [4] it was 1000 nM. Further, the Ki in test [5] turned out to be 2.2 nM.
